Laboratory results as given in patent publication US9708639B2, “Method for quantifying amino acids with pyrophosphate” (TOYAMA PREFECTURE, priority 2012, dated 2017).

Tests used:
Assay in all cases: Qualitative test of AARS substrate specificity (molybdenum blue method)
Type in all cases: biochemical, Thermotoga maritima MSB8 strain
Design in all cases: key: +: Activity was detected; −: Activity was not detected
[1] = biological target: T1, Thermotoga-derived HisRS (Thermotoga maritima, UniProt Q9X0H5); conditions: Tyr 1 mM, other amino acids 5 mM; hydroxylamine 1000 mM; HisRS 0.1 mg/ml; 30° C.
T1 construct: His tag (C); made in house; host or cells: Escherichia coli BL21 (DE3)
T1 sequence (Q9X0H5 1-420): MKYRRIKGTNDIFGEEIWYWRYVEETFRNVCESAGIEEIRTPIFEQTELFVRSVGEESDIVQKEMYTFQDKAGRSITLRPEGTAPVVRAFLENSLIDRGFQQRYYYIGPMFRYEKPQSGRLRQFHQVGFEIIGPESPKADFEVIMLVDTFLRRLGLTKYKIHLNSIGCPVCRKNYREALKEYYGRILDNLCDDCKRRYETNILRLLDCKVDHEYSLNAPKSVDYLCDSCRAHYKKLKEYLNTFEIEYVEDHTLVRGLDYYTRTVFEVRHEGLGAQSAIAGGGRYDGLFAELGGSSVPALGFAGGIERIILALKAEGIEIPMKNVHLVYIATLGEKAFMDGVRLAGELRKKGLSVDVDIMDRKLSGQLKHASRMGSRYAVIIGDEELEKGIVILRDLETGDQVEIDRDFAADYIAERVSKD
Description: (§1) A test sample containing an amino acid as the measurement subject and a reaction mixture for quantifying amino acid having the following composition were mixed. The mixture was left standing at 30° C. to allow the AARS reaction to advance. The mixture in a volume of 33 μl, 66 μl of water, and 1 μl of a 300 U/ml yeast pyrophosphatase solution were mixed, and left standing at room temperature for 20 minutes to allow the pyrophosphatase reaction to advance. Then, the reaction mixture was mixed with 100 μl of a color development solution A and 30 μl of a color developing solution B having the following compositions, then the mixture was left standing at room temperature for 5 minutes, and the absorbance was measured at 700 nm or 900 nm with a microplate reader.
(§2) Reaction mixture for quantifying amino acid: 20 mM Tris-HCl (pH 7.0), 5 mM MgCl2, 2 mM ATP, and AARS (concentrations are final concentrations obtained after mixing with test sample)
(§3) Color developing solution A: A solution obtained by mixing water and concentrated sulfuric acid at a ratio of 3:1 and dissolving (NH4)6Mo7O24.4H2O in the mixture at a concentration of 0.066 g/ml
(§4) Color developing solution B: A solution obtained by mixing water and concentrated sulfuric acid at a ratio of 10000:7 and dissolving FeSO4.7H2O in the mixture at a concentration of 145 mg/ml
(§5) Presence or absence of pyrophosphate generation was verified for the Thermotoga-derived CysRS, HisRS, LysRS, ProRS, SerRS, TrpRS, and TyrRS by using the AARS activity measurement method described in 9. and standard solutions of the various amino acids as test samples. AARSs were added to the reaction mixture at final concentrations of 0.3 (8 mU/ml), 0.1, 0.2 (3 mU/ml), 0.2, 0.1 (1 mU/ml), 0.1, 0.2 (20 mU/ml) mg/ml, respectively. The reaction mixtures were prepared so that the final concentration of Tyr was 1 mM, and the final concentrations of the other amino acids were 5 mM. As for the hydroxylamine concentration, it was added at a final concentration of 1000 mM for all the cases. Further, presence or absence of pyrophosphate production was also verified for the Thermus-derived MetRS and TyrRS by using the AARS activity measurement method described in 10. and standard solutions of the various amino acids as test samples. The reaction mixtures were prepared so that the final concentrations of the amino acids were 200 μM. Hydroxylamine was added at a final concentration of 400 mM.
(§6) Detection or no detection of the activity in the reaction mixtures containing a combination of each AARS and amino acid are shown in Table 2. The symbol + indicates detection of the activity, and − indicates no detection of the activity.

[2] = biological target: T2, Thermotoga-derived TrpRS (Thermotoga maritima, UniProt Q9WYW2); conditions: Tyr 1 mM, other amino acids 5 mM; hydroxylamine 1000 mM; TrpRS 0.1 mg/ml; 30° C.
T2 construct: His tag (C); made in house; host or cells: Escherichia coli BL21 (DE3)
T2 sequence (Q9WYW2 1-328): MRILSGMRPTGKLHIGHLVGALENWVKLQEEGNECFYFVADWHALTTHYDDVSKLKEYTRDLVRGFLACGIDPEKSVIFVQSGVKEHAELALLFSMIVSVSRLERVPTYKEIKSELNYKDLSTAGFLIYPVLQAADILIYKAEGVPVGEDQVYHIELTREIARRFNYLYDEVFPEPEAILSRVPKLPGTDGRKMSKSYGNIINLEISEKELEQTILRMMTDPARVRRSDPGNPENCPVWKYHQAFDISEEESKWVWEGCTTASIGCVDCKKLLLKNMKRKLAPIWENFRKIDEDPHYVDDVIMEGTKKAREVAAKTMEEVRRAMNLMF
Description: as §1, §2, §3, §4, §5, §6

[3] = biological target: T3, Thermotoga-derived LysRS (Thermotoga maritima, UniProt Q9X231); conditions: Tyr 1 mM, other amino acids 5 mM; hydroxylamine 1000 mM; LysRS 0.2 mg/ml (3 mU/ml); 30° C.
T3 construct: His tag (C); made in house; host or cells: Escherichia coli BL21 (DE3)
T3 sequence (Q9X231 1-502): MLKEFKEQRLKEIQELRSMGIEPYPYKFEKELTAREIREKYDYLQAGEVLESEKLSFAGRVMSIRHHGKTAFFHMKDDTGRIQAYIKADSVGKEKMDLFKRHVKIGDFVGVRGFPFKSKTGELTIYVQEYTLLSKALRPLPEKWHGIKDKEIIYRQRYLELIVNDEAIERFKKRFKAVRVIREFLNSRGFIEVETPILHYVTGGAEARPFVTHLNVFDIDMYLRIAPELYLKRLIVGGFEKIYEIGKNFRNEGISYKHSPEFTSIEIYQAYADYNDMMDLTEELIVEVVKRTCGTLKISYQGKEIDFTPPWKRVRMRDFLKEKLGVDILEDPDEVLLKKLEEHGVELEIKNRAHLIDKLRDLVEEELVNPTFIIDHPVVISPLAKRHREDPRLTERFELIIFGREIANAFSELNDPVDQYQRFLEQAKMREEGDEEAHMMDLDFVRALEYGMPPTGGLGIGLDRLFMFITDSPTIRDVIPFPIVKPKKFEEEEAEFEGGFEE
Description: as §1, §2, §3, §4, §5, §6

[4] = biological target: T4, Thermotoga-derived SerRS (Thermotoga maritima, UniProt Q9X199); conditions: Tyr 1 mM, other amino acids 5 mM; hydroxylamine 1000 mM; SerRS 0.1 mg/ml (1 mU/ml); 30° C.
T4 construct: His tag (C); made in house; host or cells: Escherichia coli BL21 (DE3)
Description: as §1, §2, §3, §4, §5, §6

T4 sequence (Q9X199 whole entry): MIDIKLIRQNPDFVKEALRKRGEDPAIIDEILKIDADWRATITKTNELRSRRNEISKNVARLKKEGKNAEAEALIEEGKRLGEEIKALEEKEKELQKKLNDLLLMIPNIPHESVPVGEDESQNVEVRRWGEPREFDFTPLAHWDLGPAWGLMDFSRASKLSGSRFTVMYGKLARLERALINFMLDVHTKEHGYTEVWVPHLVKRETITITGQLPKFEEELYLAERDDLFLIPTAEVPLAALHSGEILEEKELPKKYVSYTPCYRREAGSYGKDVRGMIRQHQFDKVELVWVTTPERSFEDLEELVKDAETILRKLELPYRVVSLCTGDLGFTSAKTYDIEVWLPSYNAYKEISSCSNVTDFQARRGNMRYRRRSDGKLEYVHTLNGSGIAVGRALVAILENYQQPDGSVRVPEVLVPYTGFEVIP

| Structure (SMILES) | Detection of the activity (pyrophosphate generation), HisRS [1] | Detection of the activity (pyrophosphate generation), TrpRS [2] | Detection of the activity (pyrophosphate generation), LysRS [3] | Detection of the activity (pyrophosphate generation), SerRS [4] |
| --- | --- | --- | --- | --- |
| N[C@@H](CCC(=O)O)C(=O)O [Glu, L-glutamic acid] | − | − | − | − |
| N[C@@H](CS)C(=O)O [Cys, L-cysteine] | − | − | − | − |
| N[C@@H](Cc1c[nH]cn1)C(=O)O [His, L-histidine] | + | − | − | − |
| CC[C@H](C)[C@H](N)C(=O)O [Ile, L-isoleucine] | − | − | − | − |
| O=C(O)[C@@H]1CCCN1 [Pro, L-proline] | − | − | − | − |
| NC(=O)C[C@H](N)C(=O)O [Asn, L-asparagine] | − | − | − | − |
| CC(C)C[C@H](N)C(=O)O [Leu, L-leucine] | − | − | − | − |
| N[C@@H](CC(=O)O)C(=O)O [Asp, L-aspartic acid] | − | − | − | − |
| N[C@@H](Cc1ccccc1)C(=O)O [Phe, L-phenylalanine] | − | − | − | − |
| N[C@@H](CO)C(=O)O [Ser, L-serine] | − | − | − | + |
| C[C@@H](O)[C@H](N)C(=O)O [Thr, L-threonine] | − | − | − | − |
| NCCCC[C@H](N)C(=O)O [Lys, L-lysine] | − | − | + | − |
| CSCC[C@H](N)C(=O)O [Met, L-methionine] | − | − | − | − |
| NC(=O)CC[C@H](N)C(=O)O [Gln, L-glutamine] | − | − | − | − |
| N=C(N)NCCC[C@H](N)C(=O)O [Arg, L-arginine] | − | − | − | − |
| N[C@@H](Cc1ccc(O)cc1)C(=O)O [Tyr, L-tyrosine] | − | − | − | − |
| C[C@H](N)C(=O)O [Ala, L-alanine] | − | − | − | − |
| CC(C)[C@H](N)C(=O)O [Val, L-valine] | − | − | − | − |
| NCC(=O)O [Gly, glycine] | − | − | − | − |
| N[C@@H](Cc1c[nH]c2ccccc12)C(=O)O [Trp, L-tryptophan] | − | + | − | − |
